Series [1] in a line: Size, zeta potential, % EE of singly or dually loaded PLA72K-PEG-PPG-PEG12.5K NPs. Format: physicochemical.
Procedure: PTX loaded nanoparticles were produced using an emulsion-solvent evaporation method. Briefly, 50 mg of copolymer in 5 ml acetonitrile (ACN) and 5 mg of PTX (LC Laboratories, Boston, Mass., US) were dissolved in 100 ul ACN and added to 50 mg of PLA-PEG-PPG-PEG solution in 5 ml ACN. The resulting mixture was then added into a 20 ml aqueous phase composed of F127 in distilled water and stirred at room temperature for 6 to 8 hours to facilitate solvent evaporation and nanoparticle stabilization. PTX and NuBCP-9 peptide loaded PLA-PEG-PPG-PEG (50 mg) nanoparticles were prepared by double emulsion process. Paclitaxel was added into the dissolved PLA-PEG-PPG-PEG copolymer followed by immediate addition of peptide with a slight sonication. […]
Nanoparticles were filtered through an Amikon 30-kDa ultrafilter (Millipore, USA) and washed twice with MQ water to remove free drug/dye. […] The filtrate was collected and analyzed for free NuBCP-9 peptide by a Micro-BCA Kit (Pierce Chemicals, USA) and measured on EPOCH microplate reader (BioTek, US) at 590 nm. Similarly, free paclitaxel was measured through high performance liquid chromatography HPLC (Perkin Elmer, US) assay method, using C18 column with acetonitrile, Water, Methanol (60:35:5 volume ratio) as mobile phase. Encapsulation efficiency (EE %) of NuBCP-9 peptide/PTX was determined using the following formula:
Series [2] in a line: Isoelectric point of peptide. Format: physicochemical.
In the next series the test system is breast cancer. To be noted: first-line treatment of locally recurrent or metastatic breast cancer; cited from earlier work.
The subject of series [3] is MDA-MB231 breast cancer cells. In words: In vitro cytotoxicity, XTT cell proliferation assay. It counts as cell-based. To be noted: Homo sapiens, MDA-MB-231, 72 hrs. The protocol: (§1) D. In vitro cytotoxicity analysis: […] The cells were maintained at 37° C. and 5% CO2 atmosphere for the duration of experiments. Exponentially growing cancer cells were plated into a 96-well plate at a seeding density of 3000 cells per well and incubated for 24 hrs.

The subject of series [4] is MCF-7 breast cancer cells. The description is as above. Format: cell-based. To be noted: Homo sapiens, MCF7, 72 hrs. The protocol:
as §1

In another series the test system is MCF-7/PTX-R. In words: IC50 in PTX-resistant MCF-7 cells (Example 9). To be noted: Homo sapiens, MCF7. Format: cell-based. The text has this: (§2) Accordingly, MCF-7 cells resistant to PTX were generated by exposure to increasing PTX concentrations (Table 9).
The next series has as its system Ehrlich tumor. In words: Antitumor activity in syngeneic Ehrlich tumor model (Example 8). To be noted: 21 days treatment. It counts as in vivo, Balb/c mice. The protocol: H. Analysis of antitumor activity: Mice Ehrlich tumor cells were injected subcutaneously in the hind limb of syngeneic Balb/c mice (17-22 g). Tumor bearing mice (˜150 mm^3) were divided into 9 groups (6 mice/group) and treated weekly or biweekly intraperitoneally (i.p.) with different formulations for 21 days. Tumor volume was determined by vernier caliper and calculated using the formula (A×B^2)×0.5, where A and B are the longest and shortest tumor diameters, respectively. From each group, 1 mouse was sacrificed on day 7, 14, and 21 for harvesting of tumor for histopathologal examination. The tumors were fixed in 10% formalin/saline and embedded in paraffin. Five-micrometer sections were stained with hematoxylin and eosin for further immunohistochemistry, TUNNEL and Ki67 assay. Statistical analysis of tumor volumes was performed by one-way ANOVA using Graph pad prism. Survival of the mice was determined by the Kaplan-Meier method using Prism 4.0 software (Graph Pad Software).
The in vivo antitumor efficacy and systemic toxicity of the dual-drug and single drug loaded nanoparticles were evaluated on EAT tumor model Balb/c mice. […]

The test system of another series is MCF-7/PTX-R cells. As to the kind of experiment: Apoptosis in PTX-resistant cells (Annexin V/PI, FLOW, caspase-3 and PARP cleavage). It counts as cell-based, Human. To be noted: 100 nM, 48 h. As to the method: Cells were then stained with Annexin V/PI and analyzed by FACS. […] (see Example 9).
Analysis was performed by immunoblotting with anti-caspase-3 CF, anti-PARP CF and anti-β-Actin antibodies (see Example 9).
as §2

For the compound “FSRSLHSLL (listed as Homo sapiens) [NuBCP-9]”, the “EE % of Peptide” value in series [1] (encapsulation efficiency of NuBCP-9) worked out at 64.5%. The isoelectric point in series [2] is ~7.2 pH.

A word on the IC50: it is the point on the concentration scale where inhibition reaches its midpoint. Higher therefore signals weaker potency in that assay. For `CC(=O)O[C@H]1C(=O)[C@@]2(C)[C@H]([C@H](OC(=O)c3ccccc3)[C@]3(O)C[C@H](OC(=O)[C@H](O)[C@@H](NC(=O)c4ccccc4)c4ccccc4)C(C)=C1C3(C)C)[C@]1(OC(C)=O)CO[C@@H]1C[C@@H]2O` [PTX, Paclitaxel], the “EE % of PTX” value in series [1] (encapsulation efficiency) is recorded as 87%. Also, in the series on breast cancer, the progression-free survival was 11 months. The values for the IC50 (in series [3]; in series [4]; in the series on MCF-7/PTX-R) were 46 nM, 38 nM and 1.75 µM, respectively. For the same compound, the “Ki67 expression in tumor tissues” value in the series with Ehrlich tumor was “high”. The induction of apoptosis result with MCF-7/PTX-R cells is recorded as “not”.
